Values of other authors as cited in patent publication US7300792B2, “Lux expression in eukaryotic cells” (University of Tennessee Research Foundation, priority 2002, dated 2007).

System: lower eukaryotes
Settings: lower eukaryotes (yeast)

For `CCCCCCCCCC=O` [n-decylaldehyde], the Toxicity is given as “toxic to lower eukaryotes”.
